Experimental findings from publication PMC6586855, “Orobol, an Enzyme-Convertible Product of Genistein, exerts Anti-Obesity Effects by Targeting Casein Kinase 1 Epsilon” (Scientific Reports, 2019) are described below.

In one assay the target is T1, PI3Kδ (Homo sapiens, UniProt O00329).
T1 construct: gene PIK3CD; commercial kinase; with Phosphatidylinositol 3-kinase regulatory subunit alpha
Briefly: kinase inhibition assay. Type of assay: biochemical. An excerpt:
kinase inhibition assay on PI3Kδ

For the next assay, the target named is T2, PI3Kβ (Homo sapiens, UniProt P42338).
T2 construct: gene PIK3CB; commercial kinase; with Phosphatidylinositol 3-kinase regulatory subunit alpha
As to the kind of experiment: kinase inhibition assay. It is filed as biochemical. An excerpt: kinase inhibition assay on PI3Kβ

The target of assay [1] is T3, CK1ε (Homo sapiens, UniProt P49674).
T3 construct: gene CSNK1E; commercial active kinase; Reaction Biology panel for activity, SignalChem protein for pull-down
Briefly: […]-ATP kinase assay, P81 filter binding. It is filed as biochemical.

In a further assay the target is T4, KDR/VEGFR2 (Homo sapiens, UniProt P35968).
T4 construct: Reaction Biology kinase panel
As to the kind of experiment: […]-ATP kinase assay, P81 filter binding. It is filed as biochemical.

Assay [2] concerns the target T3, CK1ε. Briefly: pull-down on orobol-Sepharose 4B beads, immunoblot. Conditions: orobol coupled to beads; pH 7.5, 4 °C; competed by ATP. It is filed as binding. (Immunoblotting shows a protein as a band on a membrane.)
The target of the next assay is T5, TNIK (Homo sapiens, UniProt Q9UKE5).
T5 construct: Reaction Biology kinase panel
Briefly: […]-ATP kinase assay, P81 filter binding. Type of assay: biochemical.

The target in another assay is T6, CDK5/p25 (Homo sapiens, UniProt Q00535).
T6 construct: Reaction Biology kinase panel; complex with p25, the C-terminal fragment of p35
Briefly: […]-ATP kinase assay, P81 filter binding. It is filed as biochemical.

A further assay concerns the target T7, MNK1 (Homo sapiens, UniProt Q9BUB5).
T7 construct: gene MKNK1; Reaction Biology kinase panel
As to the kind of experiment: […]-ATP kinase assay, P81 filter binding. Type of assay: biochemical.

For a further assay, the target named is T8, PI3Kγ (Homo sapiens, UniProt P48736).
T8 construct: gene PIK3CG; commercial kinase
Briefly: kinase inhibition assay. Type of assay: biochemical. An excerpt: kinase inhibition assay on PI3Kγ

The target of a further assay is T9, MUSK (Homo sapiens, UniProt O15146).
T9 construct: Reaction Biology kinase panel
T9 sequence (O15146 517-869 limits assumed): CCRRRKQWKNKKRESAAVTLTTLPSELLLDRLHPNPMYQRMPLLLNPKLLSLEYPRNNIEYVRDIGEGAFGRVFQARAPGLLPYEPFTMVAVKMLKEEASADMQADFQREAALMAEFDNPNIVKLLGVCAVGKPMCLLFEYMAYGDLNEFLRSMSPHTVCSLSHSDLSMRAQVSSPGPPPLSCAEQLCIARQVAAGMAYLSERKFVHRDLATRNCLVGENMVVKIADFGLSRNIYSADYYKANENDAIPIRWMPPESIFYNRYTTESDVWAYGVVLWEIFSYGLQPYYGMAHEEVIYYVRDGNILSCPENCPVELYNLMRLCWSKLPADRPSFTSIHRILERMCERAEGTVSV
Briefly: […]-ATP kinase assay, P81 filter binding. It is filed as biochemical.

The target of assay [3] is T10, CK1ε (Mus musculus, UniProt Q9JMK2).
T10 construct: gene Csnk1e; endogenous protein in 3T3-L1 preadipocyte lysate, detected with anti-CK1ε antibody
T10 sequence (Q9JMK2 1-416): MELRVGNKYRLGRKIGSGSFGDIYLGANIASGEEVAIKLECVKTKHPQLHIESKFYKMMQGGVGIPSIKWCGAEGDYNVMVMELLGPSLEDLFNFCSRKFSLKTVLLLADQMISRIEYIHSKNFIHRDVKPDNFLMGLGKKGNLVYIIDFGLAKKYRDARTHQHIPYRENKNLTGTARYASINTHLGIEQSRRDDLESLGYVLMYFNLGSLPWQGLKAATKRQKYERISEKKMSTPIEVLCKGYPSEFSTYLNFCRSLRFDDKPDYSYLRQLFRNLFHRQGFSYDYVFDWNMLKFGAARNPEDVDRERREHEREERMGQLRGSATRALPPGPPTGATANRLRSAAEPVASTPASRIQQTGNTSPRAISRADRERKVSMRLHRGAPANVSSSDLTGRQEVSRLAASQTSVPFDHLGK
As to the kind of experiment: pull-down from 3T3-L1 lysate on orobol-Sepharose 4B beads, immunoblot. Conditions: orobol coupled to beads; pH 7.5, 4 °C. It is filed as biochemical.

Another assay concerns the target T11, NEK6 (Homo sapiens, UniProt Q9HC98).
T11 construct: Reaction Biology kinase panel
Briefly: […]-ATP kinase assay, P81 filter binding. It is filed as biochemical.

In a further assay the target is T12, PI3Kα (Homo sapiens, UniProt P42336).
T12 construct: gene PIK3CA; commercial kinase; with Phosphatidylinositol 3-kinase regulatory subunit alpha
Briefly: kinase inhibition assay. Type of assay: biochemical. The source says: kinase inhibition assay on PI3Kα

The next assay has as its target T13, RON/MST1R (Homo sapiens, UniProt Q04912).
T13 construct: Reaction Biology kinase panel
T13 sequence (Q04912 979-1400 limits assumed): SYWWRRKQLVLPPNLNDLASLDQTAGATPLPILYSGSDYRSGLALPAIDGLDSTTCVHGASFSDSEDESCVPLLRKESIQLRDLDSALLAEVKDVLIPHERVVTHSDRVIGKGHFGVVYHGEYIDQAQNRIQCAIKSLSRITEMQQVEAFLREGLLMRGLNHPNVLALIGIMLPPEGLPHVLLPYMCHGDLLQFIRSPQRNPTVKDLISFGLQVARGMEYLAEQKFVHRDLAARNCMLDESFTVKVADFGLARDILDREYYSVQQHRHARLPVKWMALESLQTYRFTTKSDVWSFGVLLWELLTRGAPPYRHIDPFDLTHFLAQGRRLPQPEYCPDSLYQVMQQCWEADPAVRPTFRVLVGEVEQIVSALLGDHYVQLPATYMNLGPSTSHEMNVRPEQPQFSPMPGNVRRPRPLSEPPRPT
Briefly: […]-ATP kinase assay, P81 filter binding. Type of assay: biochemical.

A further assay addresses T14, KHS/MAP4K5 (Homo sapiens, UniProt Q9Y4K4).
T14 construct: Reaction Biology kinase panel
As to the kind of experiment: […]-ATP kinase assay, P81 filter binding. Type of assay: biochemical.

The target in a further assay is T15, PBK/TOPK (Homo sapiens, UniProt Q96KB5).
T15 construct: Reaction Biology kinase panel
T15 sequence (Q96KB5 1-322): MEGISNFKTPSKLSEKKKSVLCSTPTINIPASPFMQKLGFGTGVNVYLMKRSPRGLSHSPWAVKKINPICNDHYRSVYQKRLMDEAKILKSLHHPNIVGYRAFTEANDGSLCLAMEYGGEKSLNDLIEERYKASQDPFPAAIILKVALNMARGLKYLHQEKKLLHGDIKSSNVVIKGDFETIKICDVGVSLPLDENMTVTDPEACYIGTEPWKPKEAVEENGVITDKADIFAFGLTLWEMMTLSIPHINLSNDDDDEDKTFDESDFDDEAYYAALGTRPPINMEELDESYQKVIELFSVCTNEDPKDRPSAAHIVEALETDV
Briefly: […]-ATP kinase assay, P81 filter binding. Type of assay: biochemical.

Each structure is given as a SMILES string.

T3 sequence (P49674 whole entry): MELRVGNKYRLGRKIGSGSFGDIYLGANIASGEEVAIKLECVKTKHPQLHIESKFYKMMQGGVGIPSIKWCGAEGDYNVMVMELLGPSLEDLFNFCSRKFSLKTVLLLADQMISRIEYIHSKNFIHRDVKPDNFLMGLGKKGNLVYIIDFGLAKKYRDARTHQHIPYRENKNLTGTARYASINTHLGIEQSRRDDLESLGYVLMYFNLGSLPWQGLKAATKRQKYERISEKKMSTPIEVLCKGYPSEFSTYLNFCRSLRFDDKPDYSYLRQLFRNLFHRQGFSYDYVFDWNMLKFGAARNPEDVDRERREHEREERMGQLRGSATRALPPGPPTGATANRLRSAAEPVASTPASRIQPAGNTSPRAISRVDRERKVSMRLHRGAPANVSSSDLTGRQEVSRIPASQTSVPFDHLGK
T8 sequence (P48736 whole entry): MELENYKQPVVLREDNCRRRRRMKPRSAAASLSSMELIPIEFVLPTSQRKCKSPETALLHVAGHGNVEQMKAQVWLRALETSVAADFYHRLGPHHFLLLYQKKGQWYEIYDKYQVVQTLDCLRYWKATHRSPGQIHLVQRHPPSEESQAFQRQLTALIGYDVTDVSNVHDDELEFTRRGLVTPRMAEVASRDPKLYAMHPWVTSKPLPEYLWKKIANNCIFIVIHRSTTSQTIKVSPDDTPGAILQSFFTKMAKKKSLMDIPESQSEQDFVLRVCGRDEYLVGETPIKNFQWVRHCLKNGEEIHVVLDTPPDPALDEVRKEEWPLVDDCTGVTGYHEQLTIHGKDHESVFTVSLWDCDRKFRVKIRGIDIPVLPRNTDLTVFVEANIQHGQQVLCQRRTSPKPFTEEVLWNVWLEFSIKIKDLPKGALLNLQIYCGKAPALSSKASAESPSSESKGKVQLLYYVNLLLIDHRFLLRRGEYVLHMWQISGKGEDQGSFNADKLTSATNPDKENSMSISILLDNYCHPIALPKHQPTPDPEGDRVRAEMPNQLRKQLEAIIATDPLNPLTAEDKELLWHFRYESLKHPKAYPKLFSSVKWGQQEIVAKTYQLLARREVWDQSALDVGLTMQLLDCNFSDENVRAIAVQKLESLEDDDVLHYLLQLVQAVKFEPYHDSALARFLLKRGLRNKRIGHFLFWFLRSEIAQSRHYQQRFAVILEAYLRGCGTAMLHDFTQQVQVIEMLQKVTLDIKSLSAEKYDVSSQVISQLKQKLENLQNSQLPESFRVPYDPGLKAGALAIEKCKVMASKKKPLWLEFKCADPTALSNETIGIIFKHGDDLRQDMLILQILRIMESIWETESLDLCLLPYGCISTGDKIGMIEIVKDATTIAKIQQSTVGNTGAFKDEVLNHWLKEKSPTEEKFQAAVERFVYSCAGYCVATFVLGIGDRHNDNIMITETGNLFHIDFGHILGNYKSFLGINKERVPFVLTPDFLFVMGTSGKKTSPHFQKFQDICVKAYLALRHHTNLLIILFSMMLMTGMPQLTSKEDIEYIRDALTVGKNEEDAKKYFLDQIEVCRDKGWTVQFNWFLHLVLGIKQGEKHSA
T2 sequence (P42338 whole entry): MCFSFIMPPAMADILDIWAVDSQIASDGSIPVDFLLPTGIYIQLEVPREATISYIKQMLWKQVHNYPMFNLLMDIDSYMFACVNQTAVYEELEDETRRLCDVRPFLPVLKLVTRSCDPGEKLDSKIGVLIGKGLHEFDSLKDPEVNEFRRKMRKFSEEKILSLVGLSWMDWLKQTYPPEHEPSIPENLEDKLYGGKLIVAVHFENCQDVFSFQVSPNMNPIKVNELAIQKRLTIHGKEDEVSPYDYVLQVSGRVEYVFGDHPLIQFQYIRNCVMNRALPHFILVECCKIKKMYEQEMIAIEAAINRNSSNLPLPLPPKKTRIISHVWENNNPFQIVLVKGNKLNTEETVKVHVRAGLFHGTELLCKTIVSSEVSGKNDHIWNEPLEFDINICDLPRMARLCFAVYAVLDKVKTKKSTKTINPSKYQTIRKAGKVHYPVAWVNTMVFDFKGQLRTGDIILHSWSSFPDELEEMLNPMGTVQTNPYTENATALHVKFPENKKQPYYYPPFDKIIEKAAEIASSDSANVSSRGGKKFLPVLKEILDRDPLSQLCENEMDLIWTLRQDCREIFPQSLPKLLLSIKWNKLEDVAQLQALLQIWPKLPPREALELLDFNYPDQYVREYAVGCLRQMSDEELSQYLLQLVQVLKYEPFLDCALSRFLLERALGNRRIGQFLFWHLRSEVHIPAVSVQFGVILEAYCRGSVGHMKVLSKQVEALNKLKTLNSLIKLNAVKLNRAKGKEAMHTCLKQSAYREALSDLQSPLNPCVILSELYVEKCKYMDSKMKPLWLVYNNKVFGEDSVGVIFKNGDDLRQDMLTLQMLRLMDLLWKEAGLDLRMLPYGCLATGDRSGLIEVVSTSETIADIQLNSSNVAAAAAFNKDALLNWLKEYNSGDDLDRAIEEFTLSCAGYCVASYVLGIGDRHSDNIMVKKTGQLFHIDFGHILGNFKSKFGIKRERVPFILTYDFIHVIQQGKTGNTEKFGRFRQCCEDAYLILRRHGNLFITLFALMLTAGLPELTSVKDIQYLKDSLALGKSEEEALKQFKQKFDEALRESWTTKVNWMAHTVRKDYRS
T2 sequence (P27986 2-724 partner): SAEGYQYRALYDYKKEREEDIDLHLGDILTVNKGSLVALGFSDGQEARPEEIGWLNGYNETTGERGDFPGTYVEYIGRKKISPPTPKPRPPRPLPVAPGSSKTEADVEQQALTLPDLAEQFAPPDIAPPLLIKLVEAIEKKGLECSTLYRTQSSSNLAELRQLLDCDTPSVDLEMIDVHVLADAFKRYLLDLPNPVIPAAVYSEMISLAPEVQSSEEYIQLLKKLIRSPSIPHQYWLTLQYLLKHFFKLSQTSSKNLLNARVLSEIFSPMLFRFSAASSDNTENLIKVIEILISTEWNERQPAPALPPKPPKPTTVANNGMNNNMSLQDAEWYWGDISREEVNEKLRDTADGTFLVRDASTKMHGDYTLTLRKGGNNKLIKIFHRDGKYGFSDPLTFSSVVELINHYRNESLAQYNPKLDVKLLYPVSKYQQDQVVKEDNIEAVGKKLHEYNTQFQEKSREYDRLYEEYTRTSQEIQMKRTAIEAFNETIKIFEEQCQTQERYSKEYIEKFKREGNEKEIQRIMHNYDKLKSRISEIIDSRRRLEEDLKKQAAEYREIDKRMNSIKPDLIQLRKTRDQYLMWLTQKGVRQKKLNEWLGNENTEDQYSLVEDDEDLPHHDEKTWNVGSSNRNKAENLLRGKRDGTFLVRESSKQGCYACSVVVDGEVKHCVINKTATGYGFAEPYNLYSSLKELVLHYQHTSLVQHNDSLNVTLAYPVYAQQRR
T7 sequence (Q9BUB5 whole entry): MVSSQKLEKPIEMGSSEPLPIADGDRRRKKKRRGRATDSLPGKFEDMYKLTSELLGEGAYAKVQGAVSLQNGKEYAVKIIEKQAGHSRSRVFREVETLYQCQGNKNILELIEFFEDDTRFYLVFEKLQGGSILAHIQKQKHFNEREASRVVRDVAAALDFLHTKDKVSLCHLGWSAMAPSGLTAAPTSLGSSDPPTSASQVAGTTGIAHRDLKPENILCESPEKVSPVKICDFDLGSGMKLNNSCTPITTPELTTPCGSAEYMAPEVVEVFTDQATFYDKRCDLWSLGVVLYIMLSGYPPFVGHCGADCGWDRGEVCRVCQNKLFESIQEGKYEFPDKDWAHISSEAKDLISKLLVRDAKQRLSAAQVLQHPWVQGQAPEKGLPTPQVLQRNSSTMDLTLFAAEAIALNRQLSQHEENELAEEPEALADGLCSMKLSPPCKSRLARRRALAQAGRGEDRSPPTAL
T11 sequence (Q9HC98 whole entry): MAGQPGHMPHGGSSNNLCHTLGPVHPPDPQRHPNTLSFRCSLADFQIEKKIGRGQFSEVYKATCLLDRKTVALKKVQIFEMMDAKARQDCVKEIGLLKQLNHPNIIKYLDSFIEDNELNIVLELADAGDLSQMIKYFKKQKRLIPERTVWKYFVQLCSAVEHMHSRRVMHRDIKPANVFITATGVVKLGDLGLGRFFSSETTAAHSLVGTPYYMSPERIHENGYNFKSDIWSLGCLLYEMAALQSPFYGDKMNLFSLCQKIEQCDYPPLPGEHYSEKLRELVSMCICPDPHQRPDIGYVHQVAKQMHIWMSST
T4 sequence (P35968 789-1356 limits assumed): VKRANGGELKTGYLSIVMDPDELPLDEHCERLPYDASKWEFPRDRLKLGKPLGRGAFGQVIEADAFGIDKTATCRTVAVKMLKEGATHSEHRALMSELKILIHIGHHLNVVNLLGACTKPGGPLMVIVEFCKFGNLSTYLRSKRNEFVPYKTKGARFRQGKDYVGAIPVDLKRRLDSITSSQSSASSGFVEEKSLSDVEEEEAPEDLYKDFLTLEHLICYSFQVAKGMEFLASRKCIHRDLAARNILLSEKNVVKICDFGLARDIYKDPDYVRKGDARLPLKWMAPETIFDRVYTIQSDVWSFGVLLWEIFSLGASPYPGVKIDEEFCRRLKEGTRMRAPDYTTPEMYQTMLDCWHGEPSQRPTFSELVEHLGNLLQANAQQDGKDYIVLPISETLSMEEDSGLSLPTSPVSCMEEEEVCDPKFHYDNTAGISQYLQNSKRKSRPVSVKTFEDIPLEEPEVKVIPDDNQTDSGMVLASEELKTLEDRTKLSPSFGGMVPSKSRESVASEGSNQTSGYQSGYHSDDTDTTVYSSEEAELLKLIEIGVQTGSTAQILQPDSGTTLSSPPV

In general, IC50 refers to the concentration that gives 50% inhibition. A lower IC50 goes with greater potency. In the case of `O=c1c(-c2ccc(O)c(O)c2)coc2cc(O)cc(O)c12` [orobol], the IC50 against PI3Kδ came to 5270 nM; on PI3Kβ, 5440 nM; at CK1ε [1], 1240 nM; at KDR/VEGFR2, 4450 nM; at TNIK, 1540 nM; at MNK1 it was 2130 nM. Besides, the half-maximal inhibitory concentration (IC50) on PI3Kγ worked out at 4760 nM; at MUSK, 1480 nM; against PI3Kα it was 3460 nM; on KHS/MAP4K5 it was 1420 nM; at PBK/TOPK, 1670 nM. Further, at CK1ε [2], the “pull-down on orobol-Sepharose 4B beads, immunoblot” value was “The CK1ε kinase bound to orobol–sepharose 4B beads, but not to control sepharose 4B beads”. Besides, the results for the activity at 1 µM at CDK5/p25, at NEK6 and on RON/MST1R were 78%, 79% and 78%, respectively. Further, the “pull-down from 3T3-L1 lysate on orobol-Sepharose 4B beads, immunoblot” value on CK1ε [3] is recorded as “Orobol directly interacts with CK1ε in 3T3-L1 cell lysates”.
